Test results as given in patent US9428512B2, “Compounds” (GlaxoSmithKline LLC, priority 2012, dated 2016).

Key:
[1] = system: IFN-α induction in human whole blood; test: Induction of Interferon-α using fresh human whole blood (WB); assay type: cell-based; details: three donors, overnight incubation, cytokine release as % of 2 μM resiquimod control, read-out: mean pEC50 for IFN-α (converted)
Experimental: (§1) Assay for the Induction of Interferon-α and TNF-α Using Fresh Human Whole Blood (WB)
(§2) Compounds were prepared at 100× required concentration in DMSO in flat-bottom microtitre plates at a volume of 1.5 μL. Columns 1-10 contained a 1 in 4 serial dilution of the test compound. Included on each plate was a serial dilution of the TLR7/8 agonist resiquimod as a standard and Column 11 contained 1.5 μl of 200 μM resiquimod (giving a 2 μM final concentration, used to define the approximate maximal response to resiquimod). Each compound was assayed in duplicate for each donor.
(§3) Blood samples from three human donors were collected into sodium heparin (10 U/ml). 150 μl of whole Blood was dispensed into Col 1 to 11 of assay plates containing 1.5 μl of test compound or standard in DMSO. Plates were placed in an incubator overnight (37° C., 95% air, 5% CO2). Following the overnight incubation, plates were removed from the incubator & mixed on an orbital shaker for approximately 1 minute. 100 μl of 0.9% saline was added to each well and the plates mixed again on an orbital shaker. Plates were then centrifuged (2500 rpm, 10 mins), after which a sample of plasma was removed using a Biomek FX and assayed for both IFN-α and TNF-α using the MSD (Mesoscale Discovery) electrochemiluminescence assay platform. The IFN-α assay was carried out similarly to that described above. The TNF-α assay was carried out as per kit instructions (Cat No K111BHB).
(§4) Cytokine released was expressed as a percentage of the 2 μM resiquimod control (column 11). This percentage was plotted against compound concentration and the pEC50 for the response determined by non-linear least squares curve fitting. For the IFN-α responses, generally a 4 parameter logistic model was selected. For the TNF-α responses where a clear maximum response was obtained (i.e. a well defined plateau in the response was observed) then a 4 parameter model was generally used. If the upper asymptote of the curve wasn't well defined then the curve fitting was generally constrained to a maximal response of 100% (i.e. to the response to 2 μM resiquimod) or to the response of the highest concentration tested if this was greater than the resiquimod response. Some curves were bell shaped for one or both cytokines and the cytokine data on the down slope of the bell shaped response (i.e. concentrations above those giving the maximal response) were generally excluded from the fit, usually with the exception of the concentration immediately above the peak response. Curve fitting thus concentrated on the up slope of the dose response curve.

[2] = system: TNF-α induction in human whole blood; test: Induction of TNF-α using fresh human whole blood (WB); assay type: cell-based; details: three donors, overnight incubation, cytokine release as % of 2 μM resiquimod control, read-out: mean pEC50 for TNF-α (converted)
Experimental: as §1, §2, §3, §4

SMILES	EC50 [1] [µM]	EC50 [2] [µM]
CCCCc1nc(N)c2[nH]cc(CCCCCN3CCN(C(C)C)CC3)c2n1 [Example 2, 2-Butyl-7-(5-(4-isopropylpiperazin-1-yl)pentyl)-5H-pyrrolo[3,2-d]pyrimidin-4-amine]	≤ 1.58	≥ 5.01
CCCCc1nc(N)c2[nH]cc(CCCN3CCNCC3)c2n1 [Example 5, 2-Butyl-7-(3-(piperazin-1-yl)propyl)-5H-pyrrolo[3,2-d]pyrimidin-4-amine]	≤ 1.58	≥ 5.01
CCCCc1nc(N)c2[nH]cc(CCCCN3CCN(C(C)C)CC3)c2n1 [Example 7]	≤ 1.58	≥ 5.01
CCCCc1nc(N)c2[nH]cc(CCCCCN3CCNCC3)c2n1 [Example 1, 2-Butyl-7-(5-(piperazin-1-yl)pentyl)-5H-pyrrolo[3,2-d]pyrimidin-4-amine]	≤ 1.58	≥ 5.01
CCCCc1nc(N)c2[nH]c(C)c(CCCCCN3CCN(C(C)C)CC3)c2n1 [Example 3, 2-Butyl-7-(5-(4-isopropylpiperazin-1-yl)pentyl)-6-methyl-5H-pyrrolo[3,2-d]pyrimidin-4-amine]	≤ 1.58	≥ 5.01
CCCCc1nc(N)c2[nH]c(C)c(CCCCCN3CCN(CC)CC3)c2n1 [Example 4, 2-Butyl-7-(5-(4-ethylpiperazin-1-yl)pentyl)-6-methyl-5H-pyrrolo[3,2-d]pyrimidin-4-amine]	≤ 1.58	≥ 5.01
CCCCc1nc(N)c2[nH]cc(CCCN3CCN(CC)CC3)c2n1 [Example 6, 2-Butyl-7-(3-(4-ethylpiperazin-1-yl)propyl)-5H-pyrrolo[3,2-d]pyrimidin-4-amine]	≤ 1.58	≥ 5.01
